Measurements as given in paper PMC12337082 (Journal of Biochemical and Molecular Toxicology, 2025).

How the values were obtained:
MDA‐MB‐231 [1] = test: MTT cell viability assay, MDA‐MB‐231; type: cell-based, human; details: for IC50: MTT
[2] = tested on: L‐929 mouse fibroblast cell line; test: MTT cell viability assay, L‐929 control fibroblasts; type: cell-based
MCF‐7 = test: Annexin V/PI staining, Tali image‐based cytometry, MCF‐7; type: cell-based, human; details: MCF‐7, 24 h
Excerpt: (§1) To assess apoptosis and cell death, cells were stained with Annexin V‐PI dyes (Tali Apoptosis Kit‐Annexin V Alexa Fluor 488 and PI‐, Molecular Probes A10788, Invitrogen) and quantified using Tali Image‐Based Cytometer (Invitrogen) and fluorescence microscopy (Olympus CKX41 Inverted Phase Contrast Fluorescence Microscope furbished with reflected fluorescence illuminator CKX‐RFA).
(§2) To assess whether our compounds produce their cytotoxic effects through induction of apoptosis, apoptosis was investigated using Annexin V/PI labeling and MMP methods (Figures 4A−C). In addition, by utilizing TALI image‐based cytometry and fluorescent microscopy, the number of cells was analyzed for different concentrations of agents (Table 4).

MDA‐MB‐231 [3] = test: Annexin V/PI staining, Tali image‐based cytometry, MDA‐MB‐231; type: cell-based, human; details: MDA‐MB‐231, 24 h
Excerpt: as §1, §2

MDA‐MB‐231 [4] = test: Mitochondrial membrane potential (JC‐1) apoptosis assay, MDA‐MB‐231; type: cell-based, human; details: MDA‐MB‐231, 50 μM, 24 h, MMP assay
Description: Apoptosis was also investigated by evaluating mitochondrial membrane potential changes (MMP assay). MCF‐7, MDA‐MB‐231, and L‐929 cells were stained with JC‐1 dye according to the manufacturer's protocols (JC‐1 MMP Assay Kit, KA1324, Abnova). The apoptotic to healthy cell ratio was calculated using absorbances collected from two different fluorescence channels (535/595 for healthy cells, 485/535 for apoptotic cells) (Synergy H1, Biotech Instruments Inc., Vermont, USA).

COX‐2 = test: Western blot COX‐2 protein expression, MCF‐7; type: cell-based, human; details: 24 h
Description: (§3) Total protein levels were measured using the Take3 Multi‐Volume Plate (Synergy H1, BioTek Instruments Inc., Vermont, USA). In accordance with the classical protocol, transferred proteins were exposed to the following primary antibodies: Beta‐actin (NB600‐501, Novus Biologicals), Bax (SPM336, NBP2‐32809), Bcl‐2 (100/D5, NBP2‐15200), cleaved PARP (194C1439, NBP2‐27335), and COX‐2 (D‐12:sc‐166475, Santa Cruz). The bands were visualized with chemiluminescent HRP substrates (Western Bright ECL‐Advansta, K‐12045‐050). Using a chemiluminescence imaging system (Celvin S, BioStep), the relative quantification was done based on the level of β‐actin proteins.

PGE2 release = test: PGE2 ELISA, MDA‐MB‐231; type: cell-based, human; details: Homo sapiens; MDA‐MB‐231, 50 µM, 24 h
Description: PGE2 ELISA kit (ENZO, ADI‐900‐001) was used to determine prostaglandin synthesis levels. MCF‐7 and MDA‐MB‐231 breast cancer cells were cultured at a density of 1 × 10^6 cells/well in a 6‐well culture dish. […] Following 24 h of incubation, the medium was replaced with a fresh one, 10 µM arachidonic acid was added, and it was further incubated for 1 h. The PGE2 levels were determined according to the kit protocol.

Bax/Bcl‐2 ratio = test: Western blot Bax/Bcl‐2 ratio in breast cancer cell lines; type: cell-based, human; details: both cell lines, 50 µM, 24 h
Description: as §3

c‐PARP = test: Western blot cleaved PARP, MDA‐MB‐231; type: cell-based, human; details: MDA‐MB‐231, 24 h, all concentrations (50 and 75 µM); not measurable in MCF‐7
Description: as §3

CCc1cccc2c3c([nH]c12)C(CC)(CC(=O)N/N=C/c1ccc(OC)cc1)OCC3 (racemic) [SGK 206, 2‐(1,8‐Diethyl‐1,3,4,9‐tetrahydropyrano[3,4‐b]indole‐1‐yl) acetic acid[(4‐methoxyphenyl)methylene]acetohydrazide] showed an IC50 (MDA‐MB‐231 [1]; Homo sapiens, MDA-MB-231, 24 h, MDA‐MB‐231, 24 h) of 43 µM, an IC50 (MDA‐MB‐231 [1]; Homo sapiens, MDA-MB-231, 48 h, MDA‐MB‐231, 48 h) of 38 ± 2.3 µM and an IC50 (MDA‐MB‐231 [1]; Homo sapiens, MDA-MB-231, 72 h, MDA‐MB‐231, 72 h) of 36 ± 3.19 µM. For the same molecule, the IC50 (MDA‐MB‐231 [1]; MDA‐MB‐231, 24 h) was 43.2 ± 1.94 µM, the “Selectivity index (SI)” value (MDA‐MB‐231 [1]; MDA‐MB‐231 in comparison to L‐929, 24 h) was 1.65 and the “Selectivity index (SI)” value (MDA‐MB‐231 [1]; MDA‐MB‐231 in comparison to L‐929, 48 h) was 1.26. For the same molecule, the “Selectivity index (SI)” value (MDA‐MB‐231 [1]; MDA‐MB‐231 in comparison to L‐929, 72 h) was 1.38, the IC50 ([2]; L‐929, 24 h) was 71.3 ± 2.92 µM and the IC50 ([2]; L‐929, 48 h) was 47.9 ± 1.2 µM. For the same molecule, the IC50 ([2]; L‐929, 72 h) was 49.7 ± 1.64 µM, the IC50 ([2]; Mus musculus, L929, 24 h, L‐929, 24 h) was 71 µM and the IC50 ([2]; Mus musculus, L929, 48 h, L‐929, 48 h) was 47 µM. For the same molecule, the IC50 ([2]; Mus musculus, L929, 72 h, L‐929, 72 h) was 49 µM, the Apoptotic cells (MCF‐7; 25 µM) was 2% and the Dead cells (MCF‐7; 25 µM) was 9%. It also gave a Live cells (MCF‐7; 25 µM) of 89%, an Apoptotic cells (MCF‐7; 50 µM) of 4% and a Dead cells (MCF‐7; 50 µM) of 15%. For the same molecule, the Live cells (MCF‐7; 50 µM) was 81%, the Apoptotic cells (MCF‐7; 75 µM) was 19% and the Dead cells (MCF‐7; 75 µM) was 19%. For the same molecule, the Live cells (MCF‐7; 75 µM) was 62%, the Apoptotic cells (MDA‐MB‐231 [3]; 25 µM) was 1% and the Dead cells (MDA‐MB‐231 [3]; 25 µM) was 2%. The Live cells (MDA‐MB‐231 [3]; 25 µM) was 97%, the Apoptotic cells (MDA‐MB‐231 [3]; 50 µM) was 4% and the Dead cells (MDA‐MB‐231 [3]; 50 µM) was 3%. The Live cells (MDA‐MB‐231 [3]; 50 µM) was 93%, the Apoptotic cells (MDA‐MB‐231 [3]; 75 µM) was 8% and the Dead cells (MDA‐MB‐231 [3]; 75 µM) was 25%. For the same molecule, the Live cells (MDA‐MB‐231 [3]; 75 µM) was 67%, the “Increase in apoptosis compared to the control group” value (MDA‐MB‐231 [4]) was 57% and the “Decrease in COX‐2 protein expression compared to the control group” value (COX‐2; MCF‐7, 50 µM) was 30%. For the same molecule, the “Decrease in COX‐2 protein expression compared to the control group” value (COX‐2; MCF‐7, 75 µM) was 41%, the inhibition at 50 µM (PGE2 release) was 91% and the “Bax/Bcl‐2 ratio change” value (Bax/Bcl‐2 ratio) was “significantly increased”. For the same molecule, the “c‐PARP (89‐kD fragment) protein change” value (c‐PARP) was “consistent activation”.
